Test results: patent US11992499B2, “Quinoline derivatives for use in the treatment of inflammation diseases” (ABIVAX, priority 2018, dated 2024)
Entries after “also recorded” stand apart in the source; their conditions may differ. Where two headings read alike, the source gives them in different places.

Assays:
[1] = tested on: STAM model of non-alcoholic steatohepatitis; assay type: in vivo; details: for Liver weight (mean ± SD) / Liver-to-body weight ratio (mean ± SD): n = 8
Source text: To prepare dosing solution, Compound A and B were weighed and suspended in Vehicle which was composed of 20% of Vehicle-A1 and 80% of Vehicle-A2. Vehicle-A1 was composed of 0.5% (w/v) Carboxymethyl cellulose (CMC) 400-800 centipoises in water for injection+2.5% (w/v) Tween 80. Vehicle-A2 was composed of 0.5% (w/v) Carboxymethyl cellulose (CMC) 400-800 centipoises in water for injection. Telmisartan (Micardis®) was purchased from Boehringer Ingelheim GmbH (Germany) and dissolved in pure water.
(§1) NASH was induced in 48 male mice by a single subcutaneous injection of 200 μg streptozotocin (STZ, Sigma-Aldrich, USA) solution 2 days after birth and feeding with high fat diet (HFD, 57 kcal % fat, Cat #HFD32, CLEA Japan, Inc., Japan) after 4 weeks of age.
Compound A and B, and Telmisartan were administered orally in a volume of 10 mL/kg.
(§2) Compound A was administered at 3 dose levels of 10, 20 and 40 mg/kg once daily from 6 to 9 weeks of age. Compound B was administered at a dose of 40 mg/kg once daily from 6 to 9 weeks of age. Telmisartan was administered at a dose of 10 mg/kg once daily from 6 to 9 weeks of age.
C57BL/6 mice (14-day-pregnant female) were obtained from Japan SLC, Inc. (Japan). All animals used in the study were housed and cared for in accordance with the Japanese Pharmacological Society Guidelines for Animal Use.
Group 1: Vehicle Eight NASH mice were orally administered vehicle [20% of Vehicle-A1 and 80% of Vehicle-A2] in a volume of 10 mL/kg once daily from 6 to 9 weeks of age.
Eight NASH mice were orally administered vehicle supplemented with Compound A at a dose of 10 mg/kg once daily from 6 to 9 weeks of age.
Eight NASH mice were orally administered vehicle supplemented with Compound A at a dose of 20 mg/kg once daily from 6 to 9 weeks of age.
Eight NASH mice were orally administered vehicle supplemented with Compound A at a dose of 40 mg/kg once daily from 6 to 9 weeks of age.
Eight NASH mice were orally administered vehicle supplemented with Compound B at a dose of 40 mg/kg once daily from 6 to 9 weeks of age.
Eight NASH mice were orally administered pure water supplemented with Telmisartan at a dose of 10 mg/kg once daily from 6 to 9 weeks of age.
The viability, clinical signs and behavior were monitored daily. Body weight was recorded before the treatment. […] The animals were sacrificed at 9 weeks of age by exsanguination through direct cardiac puncture under isoflurane anesthesia (Pfizer Inc.).

[2] = tested on: STAM model of non-alcoholic steatohepatitis; assay: STAM model of NASH: plasma ALT; assay type: in vivo, mice; details: for Plasma ALT (mean ± SD): n = 8
Protocol: NASH was induced in 48 male mice by a single subcutaneous injection of 200 μg streptozotocin (STZ, Sigma-Aldrich, USA) solution 2 days after birth and feeding with high fat diet (HFD, 57 kcal % fat, Cat #HFD32, CLEA Japan, Inc., Japan) after 4 weeks of age. Compound A was administered at 3 dose levels of 10, 20 and 40 mg/kg once daily from 6 to 9 weeks of age. Compound B was administered at a dose of 40 mg/kg once daily from 6 to 9 weeks of age. Telmisartan was administered at a dose of 10 mg/kg once daily from 6 to 9 weeks of age. For plasma biochemistry, non-fasting blood was collected in polypropylene tubes with anticoagulant (Novo-Heparin, Mochida Pharmaceutical Co. Ltd., Japan) and centrifuged at 1,000×g for 15 minutes at 4° C. The supernatant was collected and stored at −80° C. until use. Plasma ALT was measured by FUJI DRI-CHEM 7000 (Fujifilm, Japan).

[3] = tested on: STAM model of non-alcoholic steatohepatitis; assay: STAM model of NASH: liver triglyceride content; assay type: in vivo, mice; details: for Liver triglyceride (mean ± SD): n = 8
Protocol: as §1, §2
Liver total lipid-extracts were obtained by Folch's method (Folch J. et al., J. Biol. Chem. 1957; 226: 497). Liver samples were homogenized in chloroform-methanol (2:1, v/v) and incubated overnight at room temperature. After washing with chloroform-methanol-water (8:4:3, v/v/v), the extracts were evaporated to dryness, and dissolved in isopropanol. Liver triglyceride content was measured by Triglyceride E-test (FUJIFILM Wako Pure Chemical Corporation, Japan).

[4] = tested on: STAM model of non-alcoholic steatohepatitis; assay: STAM model of NASH: HE staining and NAFLD Activity score; assay type: in vivo, mice; set-up: key to NAFLD Activity score (mean ± SD): NAFLD Activity score per Kleiner et al. 2005 criteria
Protocol: (§3) NASH was induced in 48 male mice by a single subcutaneous injection of 200 μg streptozotocin (STZ, Sigma-Aldrich, USA) solution 2 days after birth and feeding with high fat diet (HFD, 57 kcal % fat, Cat #HFD32, CLEA Japan, Inc., Japan) after 4 weeks of age. Compound A was administered at 3 dose levels of 10, 20 and 40 mg/kg once daily from 6 to 9 weeks of age. Compound B was administered at a dose of 40 mg/kg once daily from 6 to 9 weeks of age. Telmisartan was administered at a dose of 10 mg/kg once daily from 6 to 9 weeks of age. For HE staining, sections were cut from paraffin blocks of liver tissue prefixed in Bouin's solution and stained with Lillie-Mayer's Hematoxylin (Muto Pure Chemicals Co., Ltd., Japan) and eosin solution (FUJIFILM Wako Pure Chemical Corporation). NAFLD Activity score (NAS) was calculated according to the criteria of Kleiner (Kleiner D E. et al., Hepatology, 2005; 41:1313). To visualize collagen deposition, Bouin's fixed liver sections were stained using picro-Sirius red solution (Waldeck, Germany). For quantitative analysis of fibrosis area, bright field images of Sirius red-stained sections were captured around the central vein using a digital camera (DFC295; Leica, Germany) at 200-fold magnification, and the positive areas in 5 fields/section were measured using ImageJ software (National Institute of Health, USA).

[5] = tested on: STAM model of non-alcoholic steatohepatitis; assay: STAM model of NASH: Sirius red staining, fibrosis area; assay type: in vivo, mice; details: for Sirius red-positive area (fibrosis area, mean ± SD): n = 8
Protocol: as §3

[6] = tested on: STAM model of non-alcoholic steatohepatitis; assay: STAM model of NASH: Alpha-SMA immunostaining; assay type: in vivo, mice; details: for Alpha-SMA-positive area (mean ± SD): n = 8
Protocol: NASH was induced in 48 male mice by a single subcutaneous injection of 200 μg streptozotocin (STZ, Sigma-Aldrich, USA) solution 2 days after birth and feeding with high fat diet (HFD, 57 kcal % fat, Cat #HFD32, CLEA Japan, Inc., Japan) after 4 weeks of age. Compound A was administered at 3 dose levels of 10, 20 and 40 mg/kg once daily from 6 to 9 weeks of age. Compound B was administered at a dose of 40 mg/kg once daily from 6 to 9 weeks of age. Telmisartan was administered at a dose of 10 mg/kg once daily from 6 to 9 weeks of age. […] (Table 9 herein after)

[7] = tested on: STAM model of non-alcoholic steatohepatitis; assay: STAM model of NASH: F4/80 immunostaining; assay type: in vivo, mice; details: for F4/80-positive area (mean ± SD): n = 8
Protocol: as §1, §2

[8] = 40 mg/kg PO QD (Compound A high, Compound B groups)
[9] = 40 mg/kg PO QD, 6-9 wks of age (Compound A high, Compound B groups)
[10] = 40 mg/kg PO QD (Compound B group)
[11] = 40 mg/kg PO QD, 6-9 wks of age (Compound A high, Compound B groups), n = 8
[12] = summary statement, dose not stated
[13] = 10 mg/kg PO QD (Compound A low, Telmisartan groups)
[14] = 10 mg/kg PO QD, 6-9 wks of age (Compound A low, Telmisartan groups)
[15] = 10 mg/kg PO QD (Telmisartan group)
[16] = 10 mg/kg PO QD, 6-9 wks of age (Compound A low, Telmisartan groups), n = 8

Structure (SMILES): O=C(O)[C@H]1O[C@@H](N(c2ccc(OC(F)(F)F)cc2)c2ccc3cccc(Cl)c3n2)[C@H](O)[C@@H](O)[C@@H]1O [Compound B]
- Mean liver weight compared with the Vehicle group [1, 8]: tended to increase
- Mean liver-to-body weight ratio compared with the Vehicle group [1, 8]: tended to increase
- Liver weight (mean ± SD) [1, 9]: 1606 ± 227 mg
- Liver-to-body weight ratio (mean ± SD) [1, 9]: 8.1 ± 1.1%
- Plasma ALT level compared with the Vehicle group [2, 8]: tended to increase; also recorded: increasing trends
- Plasma ALT (mean ± SD) [2, 9]: 72 ± 24 U/L
- Liver triglyceride content compared with the Vehicle group [3, 10]: tended to increase; also recorded: increasing trends
- Liver triglyceride (mean ± SD) [3, 9]: 82.9 ± 32.6 mg/g liver
- NAS compared with the Vehicle group [4, 8]: tended to decrease; also recorded: decreasing trend
- Hepatocyte ballooning score 0 (None), number of mice [4, 11]: 5
- Hepatocyte ballooning score 1 (Few balloon cells), number of mice [4, 11]: 2
- Hepatocyte ballooning score 2 (Many cells/prominent ballooning), number of mice [4, 11]: 1
- Lobular inflammation score 2 (2-4 foci/200×), number of mice [4, 11]: 3
- Lobular inflammation score 3 (>4 foci/200×), number of mice [4, 11]: 5
- NAFLD Activity score (mean ± SD) [4, 11]: 3.6 ± 1.2
- Steatosis score 0 (<5%), number of mice [4, 11]: 4
- Steatosis score 1 (5-33%), number of mice [4, 11]: 4
- Overall effect in this NASH model ([4]; conclusion of the study): potential anti-NAS effect
- NAS compared with the Vehicle group [4, 12]: decreasing trends
- Fibrosis area (Sirius red-positive area) compared with the Vehicle group [5, 10]: tended to increase; also recorded: increasing trends
- Sirius red-positive area (fibrosis area, mean ± SD) [5, 9]: 0.94 ± 0.23%
- Alpha-SMA-positive area (mean ± SD) [6, 9]: 1.17 ± 0.79%
- F4/80-positive area compared with the Vehicle group [7, 8]: tended to decrease
- F4/80-positive area (mean ± SD) [7, 9]: 1.90 ± 0.89%

Structure (SMILES): O=C(O)[C@H]1O[C@@H](N(c2ccc(OC(F)(F)F)cc2)c2ccc3cccc(Cl)c3n2)[C@H](O)[C@@H](O)[C@@H]1O [drawing 253]
- NAS compared with the Vehicle group [4, 12]: decreasing trend

Structure (SMILES): CCCc1nc2c(C)cc(-c3nc4ccccc4n3C)cc2n1Cc1ccc(-c2ccccc2C(=O)O)cc1 [Telmisartan, reference compound]
- Mean liver weight compared with the Vehicle group [1, 13]: significant decrease
- Mean liver-to-body weight ratio compared with the Vehicle group [1, 13]: tended to decrease
- Liver weight (mean ± SD) [1, 14]: 1115 ± 78 mg
- Liver-to-body weight ratio (mean ± SD) [1, 14]: 6.5 ± 0.4%
- Plasma ALT level compared with the Vehicle group [2, 13]: no significant difference
- Plasma ALT (mean ± SD) [2, 14]: 56 ± 14 U/L
- Liver triglyceride content compared with the Vehicle group [3, 15]: tended to decrease; also recorded: decreasing trend
- Liver triglyceride (mean ± SD) [3, 14]: 41.5 ± 16.9 mg/g liver
- NAS compared with the Vehicle group [4, 13]: significant decrease
- Hepatocyte ballooning score 0 (None), number of mice [4, 16]: 7
- Hepatocyte ballooning score 1 (Few balloon cells), number of mice [4, 16]: 1
- Lobular inflammation score 2 (2-4 foci/200×), number of mice [4, 16]: 4
- Lobular inflammation score 3 (>4 foci/200×), number of mice [4, 16]: 4
- NAFLD Activity score (mean ± SD) [4, 16]: 2.8 ± 0.7
- Steatosis score 0 (<5%), number of mice [4, 16]: 7
- Steatosis score 1 (5-33%), number of mice [4, 16]: 1
- Sirius red-positive area (fibrosis area, mean ± SD) [5, 14]: 0.70 ± 0.13%
- Alpha-SMA-positive area compared with the Vehicle group [6, 15]: tended to decrease
- Alpha-SMA-positive area (mean ± SD) [6, 14]: 0.83 ± 0.26%
- F4/80-positive area (mean ± SD) [7, 14]: 3.03 ± 0.95%
